In patent US7939534B2, “Certain chemical entities, compositions, and methods” (Cytokinetics, Inc., priority 2006, dated 2011):
“And” between values parts separate entries of the source, which are not always exact repeats. Equal entries are not always repeated.

Molecular target: T1, chicken gizzard smooth muscle myosin subfragment-1 chemically crosslinked to either cardiac or skeletal actin (Gallus gallus, UniProt P10587)
T1 construct: chicken gizzard smooth muscle myosin subfragment-1; from tissue; host or cells: chicken gizzard
Test: Dose dependent smooth muscle myosin ATPase modulation (pyruvate kinase/horseradish peroxidase/pyruvate oxidase-coupled ATPase assay)
Type: biochemical
Conditions: read-out: IC50 Arithmetic Mean
Description: In Vitro Model of Dose Dependent Smooth Muscle Myosin Atpase Modulation
Screening assays were performed using a pyruvate kinase and lactate dehydrogenase-coupled ATPase assay containing the following reagents: Potassium PIPES (50 mM ), MgCl2 (3 mM ), KCl (100 mM ), ATP (0.15 mM ), DTT (1 mM ), BSA (0.1 mg/ml), NADH (0.5 mM ), PEP (1.5 mM ), pyruvate kinase (4 U/ml), lactate dehydrogenase (8 U/ml), and antifoam (50 ppm) (concentrations expressed are final assay concentrations). The pH was adjusted to 6.80 at 22° C. by addition of potassium hydroxide. Lead optimization assays were performed with a more sensitive pyruvate kinase/horseradish peroxidase/pyruvate oxidase-coupled ATPase assay containing the following reagents: Potassium PIPES (12 mM ), MgCl2 (2 mM ), KCl (100 mM ), ATP (0.15 mM ), BSA (0.05 mg/ml), potassium phosphate (2 mM ), amplex red (0.1 mM ), PEP (0.1 mM ), pyruvate kinase (4 U/ml), horseradish peroxidase (0.5 U/ml), pyruvate oxidase (0.5 U/ml), and antifoam (50 ppm) (concentrations expressed are final assay concentrations). The pH was adjusted to 7.00 at 22° C. by addition of potassium hydroxide.
The protein components specific to this assay are chicken gizzard smooth muscle myosin subfragment-1 that has been chemically crosslinked to either cardiac or skeletal actin using an excess of 1-Ethyl-3-[3-dimethylaminopropyl]carbodiimide hydrochloride and N-hydroxysuccinimide. The exact concentration of the crosslinked smooth muscle myosin in the assay is determined empirically, by titration to achieve a desired rate of ATP hydrolysis. The concentration varies between protein preparations due to variations in the fraction of active molecules in each preparation.
Compound dose response assays are performed by first preparing a dilution series of test compound, each with an assay mixture containing potassium PIPES, MgCl2, KCl, ATP, BSA, potassium phosphate, amplex red, PEP, crosslinked smooth muscle actomyosin (subfragment-1), antifoam, and water. The assay is started by adding an equal volume of solution containing potassium Pipes, MgCl2, KCl, BSA, potassium phosphate, pyruvate kinase, horseradish peroxidase, pyruvate oxidase, antifoam, and water. ATP hydrolysis is monitored by measuring the fluorescence of amplex red (excitation at 480 nm, emission at 615 nm). The resulting dose response curve is fit by the 4 parameter equation y=Bottom+((Top−Bottom)/(1+((IC50/X)^Hill))). The IC50 is defined as the concentration at which ATPase activity is midway between the top and bottom of the dose response curve.

Row | IC50 | SMILES
1 | 1.06 µM | CNC(=O)CNC(=O)c1ccc(N2CCC(F)C2)nc1NCCc1cccc(F)c1 (stereo in doubt) [Compound 93, 2-[(6-((3S)-3-fluoropyrrolidinyl)-2-{[2-(3-fluorophenyl)ethyl]amino}(3-pyridyl))carbonylamino]-N-methylacetamide]
2 | 0.515 µM | O=C(NCc1cccnc1)c1ccc(N2CCCC(O)C2)nc1NCCc1cccc(F)c1 (stereo in doubt) [Compound 117, (6-((3S)-3-hydroxypiperidyl)-2-{[2-(3-fluorophenyl)ethyl]amino}(3-pyridyl))-N-(3-pyridylmethyl)carboxamide]
3 | 3.44 µM and 3.69 µM | CNC(=O)CNC(=O)c1ccc(N2CC[C@@H](O)C2)nc1NCCc1cccc(F)c1 [2-[(6-((3R)-3-hydroxypyrrolidinyl)-2-{[2-(3-fluorophenyl)ethyl]amino}(3-pyridyl))carbonylamino]-N-methylacetamide]
4 | 0.371 µM | O=C(NCc1cccnc1)c1ccc(N2CCCCC2)nc1NCCc1cccc(F)c1 [Compound 0, (2-{[2-(3-fluorophenyl)ethyl]amino}-6-piperidyl(3-pyridyl))-N-(3-pyridylmethyl)carboxamide]
5 | 3.77 µM | CC(=O)NC[C@@H]1CCN(c2ccc(C(=O)NCc3cccnc3)c(NCCc3cccc(F)c3)n2)C1 [Compound 1, N-{[(3S)-1-(6-{[2-(3-fluorophenyl)ethyl]amino}-5-[N-(3-pyridylmethyl)carbamoyl](2-pyridyl))pyrrolidin-3-yl]methyl}acetamide]
6 | 11.4 µM | NC(=O)CNC(=O)c1ccc(N2CC[C@@H](O)C2)nc1NCCc1cccc(F)c1 [Compound 2, (6-((3R)-3-hydroxypyrrolidinyl)-2-{[2-(3-fluorophenyl)ethyl]amino}(3-pyridyl))-N-(carbamoylmethyl)carboxamide]
7 | 71.3 µM | CN(C)C(=O)c1ccc(N2CC[C@@H](O)C2)nc1NCCc1cccc(F)c1 [Compound 4, (6-((3R)-3-hydroxypyrrolidinyl)-2-{[2-(3-fluorophenyl)ethyl]amino}(3-pyridyl))-N,N-dimethylcarboxamide]
8 | 1.46 µM | NC(=O)CNC(=O)c1ccc(N2CCCC2)nc1NCCc1cccc(F)c1 [Compound 5, N-(carbamoylmethyl)(2-{[2-(3-fluorophenyl)ethyl]amino}-6-pyrrolidinyl(3-pyridyl))carboxamide]
9 | 0.311 µM | O=C(NCc1cccnc1)c1ccc(N2CC[C@@H](CO)C2)nc1NCCc1cccc(F)c1 [Compound 6, (6-[(3R)-3-(hydroxymethyl)pyrrolidinyl]-2-{[2-(3-fluorophenyl)ethyl]amino}(3-pyridyl))-N-(3-pyridylmethyl)carboxamide]
10 | 64.8 µM | CNC[C@@H]1CCN(c2ccc(C(=O)NCc3cccnc3)c(NCCc3cccc(F)c3)n2)C1 [Compound 7, (6-{(3S)-3-[(methylamino)methyl]pyrrolidinyl}-2-{[2-(3-fluorophenyl)ethyl]amino}(3-pyridyl))-N-(3-pyridylmethyl)carboxamide]
11 | 47.6 µM | CC(=O)N(C)C[C@@H]1CCN(c2ccc(C(=O)NCc3cccnc3)c(NCCc3cccc(F)c3)n2)C1 [Compound 8, N-{[(3R)-1-(6-{[2-(3-fluorophenyl)ethyl]amino}-5-[N-(3-pyridylmethyl)carbamoyl](2-pyridyl))pyrrolidin-3-yl]methyl}-N-methylacetamide]
12 | 75.1 µM | CN(C)C[C@@H]1CCN(c2ccc(C(=O)NCc3cccnc3)c(NCCc3cccc(F)c3)n2)C1 [Compound 9, (6-{(3S)-3-[(dimethylamino)methyl]pyrrolidinyl}-2-{[2-(3-fluorophenyl)ethyl]amino}(3-pyridyl))-N-(3-pyridylmethyl)carboxamide]
13 | 5.4 µM | O=C(NCc1cccnc1)c1ccc(N2CCCCC2=O)nc1NCCc1cccc(F)c1 [Compound 10, (2-{[2-(3-fluorophenyl)ethyl]amino}-6-(2-oxopiperidyl)(3-pyridyl))-N-(3-pyridylmethyl)carboxamide]
14 | 16.9 µM | NC[C@@H]1CCN(c2ccc(C(=O)NCc3cccnc3)c(NCCc3cccc(F)c3)n2)C1 [Compound 11, (6-[(3S)-3-(aminomethyl)pyrrolidinyl]-2-{[2-(3-fluorophenyl)ethyl]amino}(3-pyridyl))-N-(3-pyridylmethyl)carboxamide]
15 | 0.243 µM | Nc1ccc(CNC(=O)c2ccc(N3CCCC3)nc2NCCc2cccc(F)c2)cn1 [Compound 12, N-[(6-amino(3-pyridyl))methyl](2-{[2-(3-fluorophenyl)ethyl]amino}-6-pyrrolidinyl(3-pyridyl))carboxamide]
16 | 1.59 µM | NC(=O)CCNC(=O)c1ccc(N2CCCC2)nc1NCCc1cccc(F)c1 [Compound 13, N-(2-carbamoylethyl)(2-{[2-(3-fluorophenyl)ethyl]amino}-6-pyrrolidinyl(3-pyridyl))carboxamide]
17 | 0.533 µM | O=C(NCc1cccnc1)c1ccc(N2CC[C@@H](O)C2)nc1NCCc1cccc(F)c1 [Compound 14, (6-((3R)-3-hydroxypyrrolidinyl)-2-{[2-(3-fluorophenyl)ethyl]amino}(3-pyridyl))-N-(3-pyridylmethyl)carboxamide]
18 | 4.56 µM | O=C(NCc1cccnc1)c1ccc(N2CCCC2=O)nc1NCCc1cccc(F)c1 [Compound 15, (2-{[2-(3-fluorophenyl)ethyl]amino}-6-(2-oxopyrrolidinyl)(3-pyridyl))-N-(3-pyridylmethyl)carboxamide]
19 | 0.131 µM | O=C(NCc1cccnc1)c1ccc(N2CCCC2)nc1NCCc1cccc(F)c1 [Compound 16, (2-{[2-(3-fluorophenyl)ethyl]amino}-6-pyrrolidinyl(3-pyridyl))-N-(3-pyridylmethyl)carboxamide]
20 | 15.9 µM | NC(=O)CCNC(=O)c1ccc(N2CC[C@@H](O)C2)nc1NCCc1cccc(F)c1 [Compound 17, (6-((3R)-3-hydroxypyrrolidinyl)-2-{[2-(3-fluorophenyl)ethyl]amino}(3-pyridyl))-N-(2-carbamoylethyl)carboxamide]
21 | 1.02 µM | O=C(NCc1cccnc1)c1ccc(N2CC[C@H](O)C2)nc1NCCc1cccc(F)c1 [Compound 18, (6-((3S)-3-hydroxypyrrolidinyl)-2-{[2-(3-fluorophenyl)ethyl]amino}(3-pyridyl))-N-(3-pyridylmethyl)carboxamide]
22 | 0.382 µM | O=C(NCc1cccnc1)c1ccc(N2CCC(CO)CC2)nc1NCCc1cccc(F)c1 [Compound 19, (2-{[2-(3-fluorophenyl)ethyl]amino}-6-[4-(hydroxymethyl)piperidyl](3-pyridyl))-N-(3-pyridylmethyl)carboxamide]
23 | 29.7 µM | O=C(NCc1cccnc1)c1ccc(N2CC(O)CCC2=O)nc1NCCc1cccc(F)c1 (centres unmarked) [Compound 20, (2-{[2-(3-fluorophenyl)ethyl]amino}-6-(5-hydroxy-2-oxopiperidyl)(3-pyridyl))-N-(3-pyridylmethyl)carboxamide]
24 | 6.97 µM | O=C1CN(c2ccc(C(=O)NCc3cccnc3)c(NCCc3cccc(F)c3)n2)CCN1 [Compound 21, (2-{[2-(3-fluorophenyl)ethyl]amino}-6-(3-oxopiperazinyl)(3-pyridyl))-N-(3-pyridylmethyl)carboxamide]
25 | 59.9 µM | CN1CCN(c2ccc(C(=O)NCc3cccnc3)c(NCCc3cccc(F)c3)n2)CC1 [Compound 22, (2-{[2-(3-fluorophenyl)ethyl]amino}-6-(4-methylpiperazinyl)(3-pyridyl))-N-(3-pyridylmethyl)carboxamide]
26 | 0.471 µM | O=C(NCc1cccnc1)c1ccc(N2CCC(CCO)CC2)nc1NCCc1cccc(F)c1 [Compound 23, (2-{[2-(3-fluorophenyl)ethyl]amino}-6-[4-(2-hydroxyethyl)piperidyl](3-pyridyl))-N-(3-pyridylmethyl)carboxamide]
27 | 59.8 µM | CC(C)(C)OC(=O)N1CCN(c2ccc(C(=O)NCc3cccnc3)c(NCCc3cccc(F)c3)n2)C(=O)C1 [Compound 24, tert-butyl 4-(6-{[2-(3-fluorophenyl)ethyl]amino}-5-[N-(3-pyridylmethyl)carbamoyl](2-pyridyl))-3-oxopiperazinecarboxylate]
28 | 70.8 µM | O=C(NCc1cccnc1)c1ccc(N2CCNCC2=O)nc1NCCc1cccc(F)c1 [Compound 25, (2-{[2-(3-fluorophenyl)ethyl]amino}-6-(2-oxopiperazinyl)(3-pyridyl))-N-(3-pyridylmethyl)carboxamide]
29 | 53.4 µM | CN(C)C(=O)c1ccc(N2CCCCC2=O)nc1NCCc1cccc(F)c1 [Compound 26, (2-{[2-(3-fluorophenyl)ethyl]amino}-6-(2-oxopiperidyl)(3-pyridyl))-N,N-dimethylcarboxamide]
